Test results taken from ChEMBL document CHEMBL6078614, “Privileged small molecules against neglected tropical diseases: A perspective from structure activity relationships” (Eur J Med Chem, 2024).
≈ marks a conversion by molar mass, not a printed value.

Legend:
Leishmania major [1] = assay: Antileishmanial activity against Leishmania major amastigotes assessed as inhibition of parasite growth incubated for 48 hrs by alamar blue reagent based ELISA; type: functional, organism-based
Leishmania chagasi = assay: Antileishmanial activity against Leishmania chagasi; type: functional, organism-based
Trypanosoma cruzi [2] = assay: Antitrypanosomal activity against Trypanosoma cruzi Tulahuen amastigotes; type: functional, organism-based
Leishmania mexicana [3] = assay: Antileishmanial activity against Leishmania mexicana promastigotes assessed as reduction in parasite growth by alamar-blue staining based analysis; type: functional, organism-based
Leishmania major [4] = assay: Antileishmanial activity against Leishmania major; type: functional, organism-based
Entamoeba histolytica = assay: Antiparasitic activity against Entamoeba histolytica; type: functional, organism-based
Leishmania donovani [5] = assay: Antileishmanial activity against amastigote form of Leishmania donovani infected in BALB/c mouse assessed as inhibition of parasite growth in spleen at 25 mg/kg, po measured after 5 days by geimsa staining based analysis relative to control; type: functional; parameters: scale not given: the % may be the effect or the level left; details: time 5 day
Leishmania donovani [6] = assay: Antileishmanial activity against Leishmania donovani promastigotes measured after 48 hrs by MTT assay; type: functional, organism-based
Leishmania amazonensis = assay: Antileishmanial activity against Leishmania amazonensis amastigotes assessed as parasite growth inhibition; type: functional, organism-based
Leishmania infantum = assay: Inhibition of Leishmania infantum Arginase expressed in Escherichia coli BL21 (DE3) at 50 uM by enzymatic assay relative to control
Trypanosoma cruzi [7] = assay: Antitrypanosomal activity against trypomastigote form of Trypanosoma cruzi Y assessed as inhibition of parasite viability incubated for 24 hrs by light microscopy; type: functional, organism-based
L929 = assay: Cytotoxicity against mouse L929 cells assessed as reduction in cell viability; type: functional
Leishmania mexicana [8] = assay: Antileishmanial activity against Leishmania mexicana promastigotes
Leishmania major [9] = assay: Antileishmanial activity against Leishmania major IR-173 promastigotes assessed as inhibition of parasite growth incubated for 48 hrs by resazurin dye based assay; type: functional, organism-based; details: IR-173, 48 h
Leishmania major [10] = assay: Antileishmanial activity against Leishmania major IR-173 promastigotes assessed as inhibition of parasite growth incubated for 24 hrs by resazurin dye based assay; type: functional, organism-based; details: IR-173, 24 h
[11] = system: Trypanosoma brucei rhodesiense; assay: Antitrypanosomal activity against Trypanosoma brucei rhodesiense; type: functional, organism-based
HeLa = assay: Cytotoxicity against human HeLa cells assessed as reduction in cell viability incubated for 24 hrs by MTT assay; type: functional
Trypanosoma cruzi [12] = assay: Antitrypanosomal activity against trypomastigote form of Trypanosoma cruzi Y assessed as inhibition of parasite viability; type: functional, organism-based
[13] = Inhibition of Entamoeba histolytica O-acetylserine sulfhydrylase
Trypanosoma brucei = assay: Antitrypanosomal activity against Trypanosoma brucei; type: functional, organism-based
Trypanosoma cruzi [14] = assay: Antiprotozoal activity against Trypanosoma cruzi epimastigotes assessed as reduction in parasite growth; type: functional, organism-based
Phosphodiesterase 4 = Phosphodiesterase 4 (Homo sapiens, UniProt P27815+Q08499+Q07343+Q08493); assay: Inhibition of PDE4 (unknown origin); type: protein assay
Leishmania braziliensis = assay: Antileishmanial activity against Leishmania braziliensis; type: functional, organism-based
HepG2 = assay: Cytotoxicity against human HepG2 cells assessed as reduction in cell viability by MTT assay; type: functional
Leishmania donovani [15] = assay: Antileishmanial activity against Leishmania donovani amastigotes infected in J774 macrophage assessed as inhibition of parasite growth incubated for 48 hrs by luciferase assay; type: functional, organism-based; details: J774, 48 h
Leishmania major [16] = assay: Antileishmanial activity against Leishmania major promastigotes assessed as inhibition of parasite growth; type: functional, organism-based
Leishmania major [17] = assay: Antileishmanial activity against Leishmania major promastigotes assessed as inhibition of parasite growth incubated for 48 hrs by resazurin dye based assay; type: functional, organism-based

CCCCCCCCCc1cn(CCN2CCN(C(=O)c3c(C)nc4cc(C)ccn34)CC2)nn1
IC50 (Leishmania major [1]): 15.1 µM

N=C(S)N/N=C/c1ccc(C(F)(F)F)cc1
IC50 (Leishmania chagasi): 3.2 µM

NC(=O)Nc1cc2nc(-c3cccc(C(F)(F)F)c3)cn2cn1
EC50 (Trypanosoma cruzi [2]): > 20 µM

COc1ccc2nc(-c3ccccc3)cnc2c1
IC50 (Leishmania mexicana [3]): 50.9 µM

Cc1sc(NC(=S)NC(=O)c2cccc(Cl)c2)nc1-c1ccccc1
IC50 (Leishmania major [4]): 38.5 µg/mL

N/C(S)=N/N=C/c1cccc(Cl)c1Cl
IC50 (Leishmania chagasi): 2.2 µM

COc1ccc2cc([C@H](C)C(=O)O)ccc2c1 [NAPROXEN]
IC50 (Entamoeba histolytica): 0.14 µM

N=C(N)N/N=C/c1ccc2ccccc2n1
IC50 (Leishmania chagasi): 0.6 µM

O=C(Cn1nnc2ccccc21)NNCc1ccccc1Cl
Activity (Leishmania donovani [5]): 89.4%

Cc1ncc([N+](=O)[O-])n1CCOC(=O)NC1CCCCC1
IC50 (Entamoeba histolytica): 0.46 µM

Cc1cccnc1-n1cccc1C(=O)c1ccc(F)cc1
IC50 (Leishmania donovani [6]): 7.78 µM | IC50 (Leishmania amazonensis): 16.9 µM

O=C(NCCNc1nccc(-c2c(-c3cccc(O)c3)nc3sccn23)n1)c1ccc(N2CCOCC2)c(C(F)(F)F)c1
inhibition (Leishmania infantum): 67% | IC50 (Leishmania chagasi): 32.4 µM

Cn1c(/C=C/C(=O)NO)ccc1/C=C/C(=O)c1cccc(Cl)c1
EC50 (Trypanosoma cruzi [7]): 7 µM | CC50 (L929): 40 µM

CC1CS(=O)(=O)CCN1/N=C/c1ccc([N+](=O)[O-])o1 (centres undefined) [NIFURTIMOX]
IC50 (Leishmania mexicana [8]): 9.32 µM

Cn1ccnc1-c1nnc(-c2ccc([N+](=O)[O-])s2)s1
IC50 (Leishmania major [9]): 7.1 µg/mL (≈ 24.2 µM) | IC50 (Leishmania major [10]): 11.2 µg/mL (≈ 38.2 µM)

COC(=O)c1nc(NC(=O)c2cc(NC(=O)c3nc(NC(=O)OC(C)(C)C)sc3C(C)C)cn2C)sc1C(C)C
EC50 [11]: 11.8 µM

Cc1ccn2c(C(=O)N3CCN(CCc4cn(-c5cccc(Cl)c5)nn4)CC3)c(C)nc2c1
IC50 (Leishmania major [1]): 15.1 µM | CC50 (HeLa): 62.7 µM

Brc1ccc(-n2cc(C3=NCCS3)cn2)cc1
IC50 (Trypanosoma cruzi [12]): 2.1 µM

CC(C)(C)Nc1c(-c2cc3ccccc3n3nnnc23)nc2sc(C#N)cn12
IC50 [13]: 140 µg/mL

O=C(Cn1ccnc1[N+](=O)[O-])NCc1ccccc1 [BENZNIDAZOLE]
EC50 (Trypanosoma brucei): 1.94 µM

CC(C)(Oc1ccc(Cl)cc1)C(=O)O [CLOFIBRIC ACID]
IC50 (Entamoeba histolytica): 0.145 µM

COc1ccc2c(c1)c(CC(=O)O)c(C)n2C(=O)c1ccc(Cl)cc1 [INDOMETHACIN]
IC50 (Entamoeba histolytica): 0.22 µM

c1cncc(Nc2nccc(-c3cnn4ncccc34)n2)c1
EC50 (Trypanosoma cruzi [2]): 7.7 µM

O=[N+]([O-])c1ccc2nc([S+]([O-])Cc3ccccn3)[nH]c2c1 (centres undefined)
IC50 ([13]; read-out: IC50): 11 µM

Cc1ccc(N2Cc3cc(NC(=O)N4CCN(c5cccc(C(F)(F)F)c5)CC4)ccc3C2=O)cc1
IC50 (Trypanosoma cruzi [14]): 0.04 µM

COc1ccc(C2=NN(C(C)C)C(=O)C2(C)C)cc1-c1ccncc1
pIC50 (Phosphodiesterase 4): 5.8

NCCCC(N)(C(=O)O)C(F)F (centres undefined) [EFLORNITHINE]
EC50 (Trypanosoma brucei): 13 µM

COc1ccc(/C=N/NC(N)=S)cc1
IC50 (Leishmania chagasi): 1.6 µM

O=C(Nc1cc2nc(-c3cccc(C(F)(F)F)c3)cn2cn1)N1CC[C@H](F)C1
EC50 (Trypanosoma cruzi [2]): 0.08 µM

O=C(Nc1ccc2c(c1)CN(c1ccc(Br)cc1)C2=O)N1CCN(c2ccc(F)cc2)CC1
IC50 (Trypanosoma cruzi [14]): 0.05 µM

Cc1ccc(C(=O)NC(=S)NCc2ccco2)cc1
IC50 (Leishmania major [4]): 38.5 µg/mL

Cc1c(OCC(F)(F)F)ccnc1C[S+]([O-])c1nc2ccc([N+](=O)[O-])cc2[nH]1 (centres undefined)
IC50 ([13]; read-out: IC50): 15 µM

NNc1nc(-c2ccccc2Cl)nc2ccccc12
IC50 (Leishmania braziliensis): 8.43 µM

O=C1c2ccccc2C(=O)N1CCn1cc(-c2ccccc2)nn1
IC50 (Leishmania amazonensis): 125 µM

COc1ccc2c(-c3ccnc(Nc4cccc(C#N)c4)n3)c(CO)nn2n1
EC50 (Trypanosoma cruzi [2]): 7.2 µM

COc1cccc(-c2nc3sccn3c2-c2ccnc(NCCNC(=O)Nc3cccc(C(F)(F)F)c3)n2)c1
inhibition (Leishmania infantum): 69.2% | IC50 (Leishmania chagasi): 30 µM

O=[N+]([O-])c1c(CS(=O)(=O)c2ccccc2)nc2c(Sc3ccc(Cl)cc3)cc(Cl)cn12
CC50 (HepG2): > 100 µM | IC50 (Leishmania donovani [15]): 1.3 µM

COc1ccc(C2=NN(C(C)C)C(=O)C2(C)C)cc1OCc1ccccc1
pIC50 (Phosphodiesterase 4): 6.8

Clc1ccc(-n2cc(C3=NCCS3)cn2)cc1Cl
IC50 (Trypanosoma cruzi [12]): 1.9 µM

NNS(=O)(=O)c1ccc([N+](=O)[O-])o1
IC50 (Leishmania major [1]): 5.75 µM | IC50 (Leishmania major [16]): 1.85 µM

c1ccc(-c2cnc3ccccc3n2)cc1
IC50 (Leishmania mexicana [3]): 12.5 µM

CN1CCN(c2nn3c(-c4cccc([N+](=O)[O-])c4)nnc3c3ccccc23)CC1
IC50 (Leishmania braziliensis): 9.37 µM

O=[N+]([O-])c1ccc(-c2nnc(N3CCC(O)CC3)s2)o1
IC50 (Leishmania major [4]): 68.9 µM

Cc1nc(C)c(C(=O)Nc2ccc(F)c(-c3nc4ncc(-c5ccccc5Cl)cn4n3)c2)o1
EC50 (Trypanosoma cruzi [2]): 0.02 µM

Cc1ccn2c(C(=O)N3CCN(CCc4cn(-c5ccc(Br)cc5)nn4)CC3)c(C)nc2c1
IC50 (Leishmania major [1]): 15.1 µM

Clc1ccc(-n2cc(C3=NCCS3)cn2)c(Cl)c1
IC50 (Trypanosoma cruzi [12]): 0.4 µM

CCc1ccc(-n2cc(CCN3CCN(C(=O)c4c(C)nc5cc(C)ccn45)CC3)nn2)cc1
IC50 (Leishmania major [1]): 15.1 µM

C[C@@H]1[C@H](O)[C@@H](C)/C=C/C=C/C=C/C=C/C=C/C=C/C=C/[C@H](O[C@@H]2O[C@H](C)[C@@H](O)[C@H](N)[C@@H]2O)C[C@@H]2O[C@](O)(C[C@@H](O)C[C@@H](O)[C@H](O)CC[C@@H](O)C[C@@H](O)CC(=O)O[C@H]1C)C[C@H](O)[C@H]2C(=O)O [AMPHOTERICIN B]
IC50 (Leishmania major [17]): 0.19 µg/mL (≈ 0.206 µM)

NNc1nc(-c2ccc(F)cc2)nc2ccccc12
IC50 (Leishmania braziliensis): 7.41 µM

COc1ccc(C2=NN(C(C)C)C(=O)C2(C)C)cc1-c1cccnc1
pIC50 (Phosphodiesterase 4): 6.4

CN1C(=N)N/C(=C/c2c[nH]c3cc(Br)ccc23)C1=O
IC50 (Trypanosoma cruzi [12]): 62 µM

CC(C)c1ccc(S(=O)(=O)/N=N/Cc2ccc([N+](=O)[O-])o2)cc1
IC50 (Leishmania major [1]): 4.71 µM

Cc1ccn2c(C(=O)N3CCN(CCn4cc(-c5ccc(C(C)(C)C)cc5)nn4)CC3)c(C)nc2c1
IC50 (Leishmania major [1]): 15.1 µM

N=C(N)N/N=C/c1cccc(Cl)c1Cl
IC50 (Leishmania chagasi): 7.27 µM

O=C(Nc1nc2cc(Cl)ccc2o1)C(c1ccccc1)c1ccccc1
IC50 (Leishmania donovani [15]): 9.1 µM

N=C(N)N/N=C/c1ccccc1-c1ccccc1
IC50 (Leishmania chagasi): 4.97 µM

COc1ccc(C(=O)NC(=S)Nc2nc(-c3ccccc3)c(C)s2)cc1
IC50 (Leishmania major [4]): 38.5 µg/mL

O=C(Nc1cc2nc(-c3ccc(F)c(F)c3)cn2cn1)N1CC[C@H](F)C1
EC50 (Trypanosoma cruzi [2]): 0.73 µM

CC(C)Cc1ccc(C(C)C(=O)O)cc1 (centres undefined) [IBUPROFEN]
IC50 (Entamoeba histolytica): 0.172 µM

c1ccc(-c2cnc3c(n2)CCCC3)cc1
IC50 (Leishmania mexicana [3]): 39.8 µM

O=C(O)Cc1ccccc1Nc1c(Cl)cccc1Cl [DICLOFENAC]
IC50 (Entamoeba histolytica): 0.22 µM

O=[N+]([O-])c1ccc(-c2nnc(NCCCO)s2)o1
IC50 (Leishmania major [4]): 18 µM

CCCCCCCCCCCCCCCCOP(=O)([O-])OCC[N+](C)(C)C [MILTEFOSINE]
Activity (Leishmania donovani [5]): >98%

COc1cc(/C=C/C(=O)CC(=O)/C=C/c2ccc(O)c(OC)c2)ccc1O [CURCUMIN]
EC50 [11]: 4.85 µM

O=c1[nH]c2cc(Cl)c(Cl)cc2c(=O)n1-c1ccccc1
IC50 (Leishmania mexicana [3]): 6.05 µM

O=[N+]([O-])c1ccc(-c2nnc(N3CCC(O)CC3)s2)s1
IC50 (Leishmania major [4]): 27 µM
